Test results from patent publication US11932850B2, “Cancer chemoprevention with STAT3 blockers” (Jill M. Siegfried, LLC, priority 2018, dated 2024).

Assays:
H3225 cells = assay: MTS cell viability assay, H3225; type: cell-based, human
A549 cells = system: A549 cells
Method: NSCLC cell lines (201T and H1975) were transfected with CS3D or CS3M (cyclic STAT3 mutant decoy) at concentrations ranging from 0 nM to 600 nM. Using MTS assays, cell viabilities were assessed 72 hours later. Three independent experiments were performed, using 24-well plates and 4 wells/concentration.
To determine the concentration of CS3D required to inhibit cell viability, increasing concentrations of CS3D was transfected, and after 72 hours, MTS assays were used to assess cell viability. Data were normalized to cells treated with lipofectamine alone.
Fluorescently-labeled CS3M and CS3D (with iFluor) were also produced using enzymatic ligation as described above and used to assess uptake efficiency. Transfections of the cyclic oligonucleotides were performed using Lipofectamine 2000 (Life Technologies) in opti-MEM media (Life Technologies) as follows: Cells were plated at […] confluency, and exposed to transfection media containing the respective circularized oligonucleotides for 24 hours at 37° C. […]
Dose-response experiments assessing the relative number of metabolically active viable cells were performed by transfecting cells with increasing concentrations of CS3D or CS3M, followed by performance of MTS assays. […] The plates were then read at 490 nm in a Synergy microplate reader (BioTek, Winooski, Vermont) using Gen5 2.05 software. […]

c-Myc mRNA in 201T cells = assay: RT-qPCR of c-Myc mRNA after EGF, 201T; type: cell-based, human; conditions: single transfection, EGF 10 ng/ml 1.5 hr
201T xenografts = assay: 201T NSCLC xenograft tumor growth; type: in vivo, nude mice
Method: Based on the in vitro effects of CS3D, antitumor effects were evaluated in mice harboring established NSCLC xenografts (10 tumors/group). When tumors reached 200 mm3, mice were given daily intravenous injections (tail vein) of CS3D or CS3M (5 mg/kg/d), 5 days per week, and tumor growth was monitored for 14-20 days. CS3D caused a significant and robust tumor growth inhibition in 201T- and H1975-derived xenografts compared to treatment with CS3M.
FIGS. 7A and 7B show CS3D suppresses NSCLC xenograft tumor growth. Intravenous delivery of CS3D inhibits tumor growth in both wild-type (FIG. 7A, 201T) and mutant EGFR T790M (FIG. 7B, H1975) xenografts. Approximately 1×10^6 cells were inoculated subcutaneously in the flanks of nude mice. Following the development of palpable tumors (about […]), mice were randomized and given daily injections of either CS3D or CS3M (5 mg/kg/day; 10 tumors/group). Experiments were done twice as biological replicates. Tumor volumes were recorded every other day while animal weights were also monitored during the course of the treatment. […]
All studies were approved by the University of Minnesota Institutional Animal Care and Use Committee and were carried out in accordance with institutional guidelines for animal care. […] Volumes were calculated from the formula V=(Length×Width^2)/2. […]

NNK-induced lung tumors = assay: NNK lung cancer chemoprevention pilot experiment; type: in vivo; conditions: 5 mg/kg IV 5 days a wk for 18 wks
Method: In a pilot experiment, 6 FVB/N mice were given 24 mg NNK (3 mg by ip injection, twice a wk×4 wks), followed by 6 wks rest, then IV treatment of 3 mice with either 5 mg/kg CS3D or CS3M 5 days a wk for 18 wks. […] With CS3M, lungs were filled with multiple invasive adenocarcinomas, while in mice receiving CS3D, tumor burden was reduced over 80%. H&E (hematoxylin and eosin) sections were taken of murine lungs exposed to NNK followed by treatment with CS3M or CS3D for 18 wks. Invasive carcinomas were prominent with CS3M and lacking with CS3D.

[1] = system: p-STAT3, p-NFkB, VEGF, CD31, IL-6, COX2 in lungs
[2] = 8 weeks post-treatment, vs CS3M

Substance: CS3D (DNA GATTTACGGGAAATGCSCATTTCCC; cyclic decoy with two hexaethylene glycol linkers, further chemistry not given here)
- IC50 (H3225 cells): 300 nM
- IC50 (A549 cells): 300 nM
- inhibition in mRNA level of c-Myc (c-Myc mRNA in 201T cells): 50%
- reduction in tumor growth (tumor volume) (201T xenografts; 201T xenograft, 5 mg/kg/d iv, 5 days per week, compared to CS3M): 96.5%
- tumor growth inhibition at 14 days (201T xenografts; both KRAS WT cell lines (201T and H1975), as reported (Njatcha et al 2017)): over 85%
- toxic effects (NNK-induced lung tumors): no discernable toxic effects
- reduction of tumor burden (NNK-induced lung tumors; 24 mg NNK, 6 wks rest, vs CS3M): over 80%
- toxicity in normal cells (normal lung fibroblasts): minimal
- IC50 in normal lung fibroblasts and bronchial epithelial cells relative to tumor cells (normal lung fibroblasts; fold higher than in NSCLC cell lines): 100 fold
- IL-6 levels in the airways ([1]; 8 weeks after completion of therapy, vs CS3M): upregulated
- COX-2 expression ([1]; 8 weeks after end of treatment, vs CS3M): increase
- VEGF staining in the airways [1, 2]: decrease
- activated phospho-STAT3 protein [1, 2]: long-term reduction
- phospho-NF-kB activation [1, 2]: decrease
- endothelial marker CD31 expression ([1]; premalignant stage, data not shown): suppresses
